For one assay, the target named is BRD4-BD1 (Homo sapiens (Human), UniProt O60885). Kind of assay: bromoKdELECT assay for binding affinity to BRD4-BD1. The note with it: 11-point 3-fold dilution. The method, then:
(§1) Compounds were tested using a bromoKdELECT assay. T7 phage strains displaying bromodomains were grown in parallel in 24-well blocks in an E. coli host derived from the BL21 strain. E. coli were grown to log-phase and infected with T7 phage from a frozen stock (multiplicity of infection=0.4) and incubated with shaking at 32° C. until lysis (90-150 minutes). The lysates were centrifuged (5,000×g) and filtered (0.2 μm) to remove cell debris. Streptavidin-coated magnetic beads were treated with biotinylated small molecule or acetylated peptide ligands for 30 minutes at room temperature to generate affinity resins for bromodomain assays. The liganded beads were blocked with excess biotin and washed with blocking buffer (SeaBlock (Pierce), 1% BSA, 0.05% Tween 20, 1 mM DTT) to remove unbound ligand and to reduce nonspecific phage binding. Binding reactions were assembled by combining bromodomains, liganded affinity beads, and test compounds in 1× binding buffer (17% SeaBlock, 0.33×PBS, 0.04% Tween 20, 0.02% BSA, 0.004% Sodium azide, 7.4 mM DTT). Test compounds were prepared as 1000× stocks in 100% DMSO. Kds were determined using an 11-point 3-fold compound dilution series with one DMSO control point. All compounds for Kd measurements are distributed by acoustic transfer (non-contact dispensing) in 100% DMSO. The compounds were then diluted directly into the assays such that the final concentration of DMSO was 0.09%. All reactions performed in polypropylene 384-well plates. Each was a final volume of 0.02 ml. The assay plates were incubated at room temperature with shaking for 1 hour and the affinity beads were washed with wash buffer (1×PBS, 0.05% Tween 20). The beads were then resuspended in elution buffer (1×PBS, 0.05% Tween 20, 2 μM non-biotinylated affinity ligand) and incubated at room temperature with shaking for 30 minutes. The bromodomain concentration in the eluates was measured by qPCR.

The target in another assay is BRD4-BD2 (Homo sapiens (Human), UniProt O60885). Kind of assay: bromoKdELECT assay for binding affinity to BRD4-BD2. The note with it: 11-point 3-fold dilution. The method, then: as §1
Assay [1] relates to T-Rex 293 cell line SC3 cells having increased expression of androgen receptor protein. Kind of assay: Cellular growth inhibition, T-Rex 293 SC3 cells with increased androgen receptor expression (doxycycline), CellTiter-Glo. The assay is classed as cell-based. Particulars: T-Rex 293 SC3 cells with increased androgen receptor expression (exposed to 10 ng/mL doxycycline), 72 hours, CellTiter-Glo; read-out: GI50. The method, boiled down: (§2)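 SC3, a T-Rex 293 clone with doxycycline-inducible wild-type androgen receptor, was seeded in phenol red-free DMEM with 10% charcoal-dextran FBS, with or without 10 ng/mL doxycycline. Compound added at 24 h (0.5% DMSO) for 72 h at 37° C. CellTiter-Glo 2.0 luminescence; GI50 from four-parameter fit.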

Assay [2] deals with T-Rex 293 cell line SC3 cells lacking increased expression of androgen receptor protein. As to the kind of experiment: Cellular growth inhibition, T-Rex 293 SC3 cells lacking increased androgen receptor expression (no doxycycline), CellTiter-Glo. The assay is classed as cell-based. Particulars: T-Rex 293 SC3 cells lacking increased androgen receptor expression (not exposed to doxycycline), 72 hours, CellTiter-Glo; read-out: GI50. The method, boiled down:
as §2

A further assay has as its system VCaP cells. Kind of assay: Cellular growth inhibition assay for VCaP cells, CellTiter-Glo. The assay is classed as cell-based, human. Particulars: VCaP cells, 72 hours, CellTiter-Glo, read-out: GI50. The gist of the method: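 GI50 values come from four-parameter curve fits of luminescence data normalized to a zero baseline. Compound, in medium with 0.5% DMSO, was added one day after plating and left for 72 h before CellTiter-Glo 2.0 addition.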

In a further assay the test system is T47D cells. Kind of assay: Cellular growth inhibition assay for T47D cells, CellTiter-Glo. The assay is classed as cell-based, human. The note with it: 72 hours treatment, CellTiter-Glo 2.0. The gist of the method:
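Luminescence from CellTiter-Glo 2.0 after 72 h of compound exposure gives the viability signal. Cells grew in insulin-supplemented (0.2 units/mL) DMEM with 10% FBS and were treated one day after seeding at 0.5% DMSO. GI50 values come from four-parameter nonlinear regression.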

Where two headings read alike, the source gives them in different places.

As to `CCS(=O)(=O)c1ccc(Oc2ccc(COC3CCN(c4ccc(C(=O)N[C@H]5CC[C@H](Oc6ccc(C#N)c(Cl)c6)CC5)nn4)CC3)c(F)c2F)c(-c2cn(C)c(=O)c3[nH]ccc23)c1` [I-53], the dissociation constant (Kd) at BRD4-BD1 and on BRD4-BD2 was over 2500 nM each time. The concentration for 50% growth inhibition (GI50) (in assay [1]; in assay [2]; in the assay with VCaP cells; with T47D cells) was under 500 nM in each case.

For `CCS(=O)(=O)c1ccc(Oc2ccc(CCC3CCN(c4ccc(C(=O)N[C@H]5CC[C@H](Oc6ccc(C#N)c(Cl)c6)CC5)nn4)CC3)c(F)c2)c(-c2cn(C)c(=O)c3[nH]ccc23)c1` [I-54], the Kd at BRD4-BD1 and at BRD4-BD2 was over 2500 nM each time. Further, the GI50 (in assay [1]; in assay [2]; in the assay on VCaP cells; in the assay with T47D cells) was under 500 nM each time.

Regarding `CCS(=O)(=O)c1ccc(Oc2cccc(CCN3CCN(c4ccc(C(=O)N[C@H]5CC[C@H](Oc6ccc(C#N)c(Cl)c6)CC5)nn4)CC3)c2F)c(-c2cn(C)c(=O)c3[nH]ccc23)c1` [I-55], the Kd on BRD4-BD1 and on BRD4-BD2 was under 50 nM in each case. Also, the GI50 (in assay [1]; in assay [2]; in the assay with VCaP cells (Homo sapiens); in the assay on T47D cells (Homo sapiens)) was under 500 nM in each case.

With `CCS(=O)(=O)c1ccc(Oc2ccc(CN3CC4(C3)CN(c3ccc(C(=O)N[C@H]5CC[C@H](Oc6ccc(C#N)c(Cl)c6)CC5)nn3)C4)cc2)c(-c2cn(C)c(=O)c3[nH]ccc23)c1` [I-56], the Kd at BRD4-BD1 and at BRD4-BD2 was under 50 nM throughout. Further, the GI50 (in assay [1]; in assay [2]; in the assay with VCaP cells (Homo sapiens); in the assay with T47D cells (Homo sapiens)) was under 500 nM each time.

As for `CCS(=O)(=O)c1ccc(Oc2ccc(CN3CC4(CCN(c5ccc(C(=O)N[C@H]6CC[C@H](Oc7ccc(C#N)c(Cl)c7)CC6)nn5)CC4)C3)cc2)c(-c2cn(C)c(=O)c3[nH]ccc23)c1` [I-57], the Kd at BRD4-BD1 and at BRD4-BD2 was under 50 nM each time. The GI50 (in assay [1]; in assay [2]; in the assay with VCaP cells (Homo sapiens); with T47D cells (Homo sapiens)) was under 500 nM in each case.

For `CCS(=O)(=O)c1ccc(Oc2ccc(N3CC4(CCN(c5ccc(C(=O)NC6CCC(Oc7ccc(C#N)c(Cl)c7)CC6)nn5)CC4)C3)cc2)c(-c2cn(C)c(=O)c3[nH]ccc23)c1` (stereo not drawn) [I-90, N-[4-(3-chloro-4-cyano-phenoxy)cyclohexyl]-6-[2-[4-[4-ethylsulfonyl-2-(6-methyl-7-oxo-1H-pyrrolo[2,3-c]pyridin-4-yl)phenoxy]phenyl]-2,7-diazaspiro[3.5]nonan-7-yl]pyridazine-3-carboxamide], the Kd at BRD4-BD1 and on BRD4-BD2 was 50 to 500 nM throughout. Further, the 50% growth inhibitory concentration (GI50) (in assay [1]; in assay [2]; in the assay with VCaP cells (Homo sapiens); in the assay with T47D cells (Homo sapiens)) was under 500 nM in each case.

Take `Cn1cc(-c2cc(C(C)(C)O)ccc2Oc2cc(F)c(CCOC3CCN(c4ccc(C(=O)N[C@H]5CC[C@H](Oc6ccc(C#N)c(Cl)c6)CC5)nn4)CC3)c(F)c2)c2cc[nH]c2c1=O` [I-110]: the dissociation constant (Kd) at BRD4-BD1 and at BRD4-BD2 was over 2500 nM in each case. For the same compound, the GI50 is under 500 nM in assay [1], 500 to 1500 nM in assay [2], under 500 nM in the assay with VCaP cells (Homo sapiens) and 1500 to 3000 nM in the assay with T47D cells (Homo sapiens).

Regarding `Cn1cc(-c2cc(C(C)(C)O)ccc2Oc2ccc(CCC3CCN(c4ccc(C(=O)N[C@H]5CC[C@H](Oc6ccc(C#N)c(Cl)c6)CC5)nn4)CC3)cc2F)c2cc[nH]c2c1=O` [I-111], the Kd at BRD4-BD1 and on BRD4-BD2 was over 2500 nM each time. Besides, the GI50 in assay [1] is under 500 nM; in assay [2], over 3000 nM; in the assay with VCaP cells, under 500 nM; in the assay on T47D cells, under 500 nM.

Take `CN(c1ccc(Oc2ccc(C(C)(C)O)cc2-c2cn(C)c(=O)c3[nH]ccc23)cc1)C1CCN(c2ccc(C(=O)N[C@H]3CC[C@H](Oc4ccc(C#N)c(Cl)c4)CC3)nn2)CC1` [I-137, N-[4-(3-chloro-4-cyano-phenoxy)cyclohexyl]-6-[4-[4-[4-(1-hydroxy-1-methyl-ethyl)-2-(6-methyl-7-oxo-1H-pyrrolo[2,3-c]pyridin-4-yl)phenoxy]-N-methyl-anilino]-1-piperidyl]pyridazine-3-carboxamide]: the dissociation constant (Kd) at BRD4-BD1 and at BRD4-BD2 was 50 to 500 nM in each case. For the same compound, the GI50 in assay [1] is under 500 nM; in assay [2] it was over 3000 nM; with VCaP cells (Homo sapiens) it was under 500 nM; in the assay with T47D cells (Homo sapiens) it was under 500 nM.

Take `CCS(=O)(=O)c1ccc(Oc2ccc(CCC3CCN(c4ccc(C(=O)N[C@H]5CC[C@H](Oc6ccc(C#N)c(Cl)c6)CC5)nn4)CC3)nc2)c(-c2cn(C)c(=O)c3[nH]ccc23)c1` [I-219]: the dissociation constant Kd at BRD4-BD1 and on BRD4-BD2 was 50 to 500 nM throughout. The GI50 (in assay [1]; in assay [2]; in the assay with VCaP cells; in the assay with T47D cells) was under 500 nM each time.

(Values after patent US20250388575A1, “HETEROBIFUNCTIONAL COMPOUNDS AND METHODS OF TREATING DISEASE” (Halda Therapeutics OpCo, Inc., priority 2022, published 2025).)
